The values that follow come from ChEMBL document CHEMBL1275320, “Positive allosteric modulators of the α-amino-3-hydroxy-5-methyl-4-isoxazolepropionic acid (AMPA) receptor” (J Med Chem, 2010).

A short description of assay [1]: Agonist activity at AMPA receptor in rat cortical neurons assessed as change in increase in AMPA current. It counts as functional.
Assay [2] has as its target T1, Glutamate receptor 2 (Homo sapiens, UniProt P42262). Kind of assay: Inhibition of human recombinant GluR2.
Assay [3] can be described thus: Agonist activity at AMPA receptor at 30 uM by FLIPR assay. It counts as functional.
Assay [4] deals with Glutamate receptor 4 (Rattus norvegicus, UniProt P19493). Kind of assay: Inhibition of rat recombinant GluR4 in cells.
Glutamate receptor 4 (Rattus norvegicus, UniProt P19493), sequence (P19493 whole entry): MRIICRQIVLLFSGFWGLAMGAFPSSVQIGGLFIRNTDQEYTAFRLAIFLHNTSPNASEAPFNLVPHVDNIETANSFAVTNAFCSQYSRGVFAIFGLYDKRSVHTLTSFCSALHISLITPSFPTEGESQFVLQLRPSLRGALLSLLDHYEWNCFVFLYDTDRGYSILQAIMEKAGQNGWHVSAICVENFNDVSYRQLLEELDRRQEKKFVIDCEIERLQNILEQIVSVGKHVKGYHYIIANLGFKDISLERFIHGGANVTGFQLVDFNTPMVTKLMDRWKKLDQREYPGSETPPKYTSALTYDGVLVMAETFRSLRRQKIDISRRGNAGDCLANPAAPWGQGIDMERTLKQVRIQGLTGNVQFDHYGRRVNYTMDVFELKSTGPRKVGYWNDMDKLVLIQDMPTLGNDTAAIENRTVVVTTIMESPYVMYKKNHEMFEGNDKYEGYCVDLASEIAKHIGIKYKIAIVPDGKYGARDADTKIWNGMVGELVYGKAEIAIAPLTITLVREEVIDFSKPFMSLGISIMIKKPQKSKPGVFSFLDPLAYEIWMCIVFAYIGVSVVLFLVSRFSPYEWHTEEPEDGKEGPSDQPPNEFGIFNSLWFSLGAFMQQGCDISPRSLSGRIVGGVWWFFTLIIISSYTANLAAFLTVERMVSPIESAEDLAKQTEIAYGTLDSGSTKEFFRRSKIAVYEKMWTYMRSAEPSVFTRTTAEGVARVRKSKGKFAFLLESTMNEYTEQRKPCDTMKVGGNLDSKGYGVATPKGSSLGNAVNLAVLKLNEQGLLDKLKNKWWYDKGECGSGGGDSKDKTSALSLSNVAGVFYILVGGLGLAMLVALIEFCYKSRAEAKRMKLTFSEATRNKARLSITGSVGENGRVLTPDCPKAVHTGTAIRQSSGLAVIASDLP
For assay [5], the target named is T1, Glutamate receptor 2. Kind of assay: Inhibition of GluR2 expressed in HEK cells at 3 uM. Format: cell-based. To be noted: HEK293.
Assay [6] concerns the target Glutamate receptor AMPA 3/4 (Homo sapiens, UniProt P42263+P48058). Description: Inhibition of GluR3/4 expressed in Xenopus oocyte.
Assay [7] in a line: Agonist activity at rat AMPA receptor assessed as AMPA-induced calcium uptake. Format: functional.
Assay [8] addresses Glutamate receptor AMPA 3/4 (Rattus norvegicus, UniProt P19492+P19493). Kind of assay: Inhibition of GluR3/4 rat in hippocampal neuron. Format: tissue-based, Hippocampus.
Assay [9] concerns the target Glutamate receptor 1 (Homo sapiens, UniProt P42261). Kind of assay: Inhibition of GluR1 expressed in HEK cells. It counts as cell-based, HEK293.
Assay [10] deals with Glutamate receptor 4 (Homo sapiens, UniProt P48058). Description: Inhibition of GluR4 expressed in HEK293 cells. Format: cell-based.
Glutamate receptor 4 (Homo sapiens, UniProt P48058), sequence (P48058 whole entry): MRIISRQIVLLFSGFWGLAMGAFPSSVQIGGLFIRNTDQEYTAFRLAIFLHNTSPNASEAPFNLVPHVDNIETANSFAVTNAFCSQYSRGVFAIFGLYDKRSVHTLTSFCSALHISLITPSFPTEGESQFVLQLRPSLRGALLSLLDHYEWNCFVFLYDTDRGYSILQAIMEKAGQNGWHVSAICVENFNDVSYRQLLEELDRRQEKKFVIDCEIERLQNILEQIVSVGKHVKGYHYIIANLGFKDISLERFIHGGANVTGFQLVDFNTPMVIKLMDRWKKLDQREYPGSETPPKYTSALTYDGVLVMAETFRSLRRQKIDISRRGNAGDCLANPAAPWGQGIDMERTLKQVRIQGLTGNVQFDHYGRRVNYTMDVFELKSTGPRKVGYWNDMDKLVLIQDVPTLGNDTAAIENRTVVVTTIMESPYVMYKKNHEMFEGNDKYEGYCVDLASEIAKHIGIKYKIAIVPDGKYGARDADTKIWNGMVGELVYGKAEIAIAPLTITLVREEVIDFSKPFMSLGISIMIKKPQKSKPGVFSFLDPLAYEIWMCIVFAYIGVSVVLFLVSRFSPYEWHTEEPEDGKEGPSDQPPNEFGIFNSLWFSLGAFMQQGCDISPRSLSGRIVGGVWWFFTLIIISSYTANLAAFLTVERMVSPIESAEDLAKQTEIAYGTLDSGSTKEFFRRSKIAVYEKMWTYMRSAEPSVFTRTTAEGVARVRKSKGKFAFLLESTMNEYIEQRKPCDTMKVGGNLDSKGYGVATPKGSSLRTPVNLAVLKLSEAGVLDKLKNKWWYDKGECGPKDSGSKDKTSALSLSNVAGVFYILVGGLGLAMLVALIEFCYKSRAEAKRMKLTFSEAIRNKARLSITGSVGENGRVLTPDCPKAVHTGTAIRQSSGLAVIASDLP
Assay [11] has as its target T1, Glutamate receptor 2. Description: Agonist activity at GluR2 receptor. Format: functional.
The target in assay [12] is T1, Glutamate receptor 2. Description: Inhibition of GluR2 flop expressed in HEK cells. Format: cell-based, HEK293.
The nature of assay [13]: Agonist activity at AMPA receptor by FLIPR assay. Format: functional.
Assay [14] addresses Glutamate receptor 3 (Homo sapiens, UniProt P42263). Description: Inhibition of GluR3 expressed in HEK cells. Format: cell-based, HEK293.
Assay [15] is filed under the species Rattus norvegicus. Kind of assay: Agonist activity at rat AMPA receptor assessed as change in EPSC amplitude. Format: functional.

Several values for one entry are separate records, joined by “and”; a condition that tells them apart may be missing. Equal entries are not always repeated. Where only a bound is given, the exact number is not on record here.

Glutamate receptor AMPA 3/4 (Rattus norvegicus, UniProt P19492+P19493), sequence (P19492 whole entry): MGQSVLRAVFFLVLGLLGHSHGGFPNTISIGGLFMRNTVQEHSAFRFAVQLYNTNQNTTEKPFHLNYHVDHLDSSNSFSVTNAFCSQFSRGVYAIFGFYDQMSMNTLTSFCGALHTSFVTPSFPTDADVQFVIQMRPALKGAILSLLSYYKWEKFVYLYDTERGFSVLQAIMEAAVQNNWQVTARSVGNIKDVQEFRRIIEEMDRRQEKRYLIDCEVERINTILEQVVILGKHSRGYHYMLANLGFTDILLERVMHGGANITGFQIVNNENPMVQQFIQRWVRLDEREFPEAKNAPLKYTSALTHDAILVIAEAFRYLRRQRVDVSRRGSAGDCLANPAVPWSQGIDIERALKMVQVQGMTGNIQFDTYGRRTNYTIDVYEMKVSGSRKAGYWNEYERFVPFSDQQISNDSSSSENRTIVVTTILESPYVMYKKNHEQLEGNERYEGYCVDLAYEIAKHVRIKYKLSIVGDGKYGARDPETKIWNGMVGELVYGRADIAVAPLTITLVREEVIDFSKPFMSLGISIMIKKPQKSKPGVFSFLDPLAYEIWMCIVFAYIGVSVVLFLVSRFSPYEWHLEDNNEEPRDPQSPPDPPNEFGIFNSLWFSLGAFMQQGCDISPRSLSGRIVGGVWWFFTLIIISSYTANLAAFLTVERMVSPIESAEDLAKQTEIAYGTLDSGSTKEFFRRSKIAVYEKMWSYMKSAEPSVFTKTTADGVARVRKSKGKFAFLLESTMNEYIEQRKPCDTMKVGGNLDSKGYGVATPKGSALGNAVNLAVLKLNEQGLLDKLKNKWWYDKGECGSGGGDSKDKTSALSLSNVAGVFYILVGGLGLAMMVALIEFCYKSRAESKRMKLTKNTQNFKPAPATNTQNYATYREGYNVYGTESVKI
Glutamate receptor AMPA 3/4 (Rattus norvegicus, UniProt P19492+P19493), sequence (P19493 whole entry): as the sequence (P19493 whole entry) above
Glutamate receptor AMPA 3/4 (Homo sapiens, UniProt P42263+P48058), sequence (P48058 whole entry): as the sequence (P48058 whole entry) above
Glutamate receptor AMPA 3/4 (Homo sapiens, UniProt P42263+P48058), sequence (P42263 whole entry): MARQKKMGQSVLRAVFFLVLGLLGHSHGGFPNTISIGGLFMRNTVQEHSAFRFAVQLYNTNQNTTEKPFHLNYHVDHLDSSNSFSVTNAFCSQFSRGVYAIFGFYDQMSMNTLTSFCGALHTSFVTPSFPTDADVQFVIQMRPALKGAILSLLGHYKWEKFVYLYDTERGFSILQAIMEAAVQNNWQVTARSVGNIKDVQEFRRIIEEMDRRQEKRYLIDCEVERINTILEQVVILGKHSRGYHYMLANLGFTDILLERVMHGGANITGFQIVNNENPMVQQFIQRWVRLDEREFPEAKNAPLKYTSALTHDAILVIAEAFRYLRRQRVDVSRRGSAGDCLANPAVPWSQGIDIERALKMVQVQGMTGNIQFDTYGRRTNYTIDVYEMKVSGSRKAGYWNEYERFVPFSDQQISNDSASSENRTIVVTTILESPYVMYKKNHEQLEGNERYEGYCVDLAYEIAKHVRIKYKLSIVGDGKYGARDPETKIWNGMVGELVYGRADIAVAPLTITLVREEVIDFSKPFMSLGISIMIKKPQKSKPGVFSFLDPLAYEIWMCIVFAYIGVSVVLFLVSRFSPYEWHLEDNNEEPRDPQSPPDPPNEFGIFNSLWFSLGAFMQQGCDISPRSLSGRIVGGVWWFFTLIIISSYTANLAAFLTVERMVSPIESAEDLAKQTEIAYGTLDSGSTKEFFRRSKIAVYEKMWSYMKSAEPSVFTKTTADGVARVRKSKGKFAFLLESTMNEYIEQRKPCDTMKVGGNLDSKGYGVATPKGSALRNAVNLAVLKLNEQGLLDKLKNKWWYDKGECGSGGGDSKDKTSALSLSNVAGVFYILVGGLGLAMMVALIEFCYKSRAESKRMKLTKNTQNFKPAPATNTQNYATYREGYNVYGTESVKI
T1 sequence (P42262 whole entry): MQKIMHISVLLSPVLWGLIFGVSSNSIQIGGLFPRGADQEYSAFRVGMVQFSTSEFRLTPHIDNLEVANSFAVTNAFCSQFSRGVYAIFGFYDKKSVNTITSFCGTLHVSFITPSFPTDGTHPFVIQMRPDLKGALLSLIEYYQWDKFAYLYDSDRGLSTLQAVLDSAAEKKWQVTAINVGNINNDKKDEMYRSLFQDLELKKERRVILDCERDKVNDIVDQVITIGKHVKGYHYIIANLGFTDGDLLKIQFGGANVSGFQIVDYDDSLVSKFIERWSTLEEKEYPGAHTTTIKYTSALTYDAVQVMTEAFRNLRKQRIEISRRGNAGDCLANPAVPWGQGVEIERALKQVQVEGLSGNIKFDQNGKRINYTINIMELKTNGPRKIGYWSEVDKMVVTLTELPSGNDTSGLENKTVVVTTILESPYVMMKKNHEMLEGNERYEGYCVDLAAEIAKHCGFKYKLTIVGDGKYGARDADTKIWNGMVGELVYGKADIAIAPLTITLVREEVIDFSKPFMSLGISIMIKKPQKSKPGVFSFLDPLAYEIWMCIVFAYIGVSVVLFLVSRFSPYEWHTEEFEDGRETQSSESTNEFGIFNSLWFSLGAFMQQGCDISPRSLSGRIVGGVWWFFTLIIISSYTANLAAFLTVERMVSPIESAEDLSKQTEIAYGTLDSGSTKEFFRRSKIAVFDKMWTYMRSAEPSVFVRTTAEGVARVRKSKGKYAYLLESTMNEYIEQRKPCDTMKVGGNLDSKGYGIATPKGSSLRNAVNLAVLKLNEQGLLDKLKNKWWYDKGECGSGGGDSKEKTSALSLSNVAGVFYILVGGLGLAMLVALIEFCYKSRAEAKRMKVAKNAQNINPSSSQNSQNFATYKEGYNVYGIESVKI
Glutamate receptor 3, sequence (P42263 whole entry): as the sequence (P42263 whole entry) above

Take `O=C1c2cc3nnn(CCc4cccc(F)c4)c(=O)c3cc2OCN1C1CC1`: in assay [1], the EC2 amounted to 0.1 µM.

The EC50 is the concentration needed to bring the measured effect to its halfway point. Turning to `CN(C)C(=O)c1ccc(-n2nc(C(F)(F)F)c3c2CCOC3)cc1`, the EC50 in [2] is less than 300 µM. The molecule further displayed an Activity in assay [3] of 14%.

As to `NS(=O)(=O)c1cc2c(cc1Cl)NC(C1CC3C=CC1C3)NS2(=O)=O` (stereo unspecified) [CYCLOTHIAZIDE], the EC2 in assay [1] was found to be 1.6 µM. In the case of `C[C@H](CNS(C)(=O)=O)c1ccc(-c2ccc([C@@H](C)CNS(C)(=O)=O)cc2)cc1`, the EC50 in assay [4] was 0.87 µM. A word on the inhibition: it is the share of the control response that was lost under treatment. High values mean a strong effect, low ones a weak effect. Regarding `CC(CNS(=O)(=O)C(C)C)c1ccc(Br)cc1` (stereo unspecified), the inhibition in assay [5] was determined as 26%. With `COc1ccc(C(=O)N2CCCC2=O)cc1`, the half-maximal effective concentration (EC50) in [6] was greater than 1000 µM; in [7] it was greater than 100 µM. For `O=C1c2cc3c(cc2OC2CCCN12)OCCO3` (stereo unspecified), the 50% effective concentration (EC50) in assay [8] stood at 43.7 µM; in [9], 21 µM. `CC1(C)CC(=O)C2=C(C1)OC(N)=C(C#N)C2c1ccc2ccccc2c1` (stereo unspecified) showed an EC50 in [6] of 1.6 µM. Besides, the EC2 in assay [1] is 1.6 µM. In assay [9], `O=C(Cn1nc(C(F)(F)F)c2c1CCCC2)Nc1sc2c(c1C(=O)NCCc1ccccn1)CCCC2` showed a concentration for a half-maximal effect (EC50) of less than 10 µM. The molecule `CC(C)S(=O)(=O)N[C@@H]1CCC[C@@H]1c1ccc(I)cc1` gave an EC50 in assay [10] of 0.23 µM.

For the molecule `CC(C)S(=O)(=O)N[C@H]1Cc2ccc(-n3nc(C(F)(F)F)c4c3CCCC4)cc2C1`, the EC50 in [2] is less than 300 µM. Turning to `O=S1(=O)N[C@H]2CCCN2c2ccc(Cl)cc21`, the EC2 in [1] was 60 µM. As for `CC(C)S(=O)(=O)N[C@@H]1CN(C)C[C@@H]1c1ccc(-c2ccc(N(C)S(C)(=O)=O)cc2)cc1`, in [2], the EC50 worked out at 1.6 µM. For `O=C1CCCN1Cc1ccc(-n2nc(C(F)(F)F)c3c2COCC3)cc1F`, the EC50 in assay [2] is less than 300 µM.

As for `CC(C)S(=O)(=O)N[C@@H]1CCC[C@@H]1c1ccc(Br)cc1`, the EC50 in [10] and in [11] was 0.52 µM in each case. Consider `O=C(c1ccc2nonc2c1)N1CCCCC1` [FARAMPATOR], for which it took 14 µM to reach a half-maximal effect in [6] (EC50).

Consider `CC(C)S(=O)(=O)NC[C@H](C)c1ccc(-c2ccc(CCNS(C)(=O)=O)cc2)cc1` [MIBAMPATOR], for which the EC50 in assay [10] is 0.15 µM.

In assay [11], `CC(=O)c1s/c(=N\c2ccc(OC(F)(F)F)cc2)n(CCO)c1C` gave a 50% effective concentration (EC50) of less than 200 µM. In addition, in [3], the Activity was found to be 15%. `CC(C)S(=O)(=O)NCCCCCCCCNS(=O)(=O)C(C)C`: the 50% effective concentration (EC50) in assay [9] was 0.91 µM. Take `CC(CNS(=O)(=O)C(C)C)c1ccc(-c2ccc(C#N)cc2)cc1` (stereo unspecified): the EC50 amounted to 5.65 µM in assay [9]; 1.44 µM in [12]; 0.29 µM in assay [13]; 1.66 µM in assay [14]; 0.15 µM in assay [11].

As to `CC(C)S(=O)(=O)NCCCCCCCCCNS(=O)(=O)C(C)C`, in assay [9], the 50% effective concentration (EC50) worked out at 0.66 µM. On to `CCN1CC[C@@H](c2ccc(-c3ccccc3)cc2)[C@H](NS(=O)(=O)C(C)C)C1`, for which the EC50 in assay [13] is less than 10 µM. Regarding `CC(C)S(=O)(=O)NCCCCCCCNS(=O)(=O)C(C)C`, the EC50 in assay [9] was 2.88 µM. For the molecule `COCc1cccc(C(=O)N2CCCCC2)c1`, the Activity in assay [15] was 25%. `CC(CNS(C)(=O)=O)c1ccc(C(C)(C)C)cc1` (stereo unspecified) registered a 50% effective concentration (EC50) in assay [10] of 1.2 µM. In assay [8], `O=C(c1ccc2c(c1)OCCO2)N1CCCCC1` came in with a concentration for a half-maximal effect (EC50) of 1600 µM.

Regarding `C[C@@H](CNS(C)(=O)=O)c1ccccc1`, in assay [12], the EC50 worked out at 1980 µM. For the molecule `O=C1CCCN1[C@H]1Cc2ccc(-n3cc(C4CC4)c(C(F)(F)F)n3)cc2C1`, the concentration for a half-maximal effect (EC50) in [2] was less than 300 µM. In the case of `O=C(c1ccc2nccnc2c1)N1CCCCC1` [CX516], the concentration for a half-maximal effect (EC50) in [8] is 95 µM; in assay [10] it was 156 µM and > 1000 µM. In addition, the Activity in [15] stood at 68%.
